For 8 compounds, IC50 results are on record in US9573939B2, “Substituted benzofuran compounds and methods of use thereof for the treatment of viral diseases” (priority 2011, dated 2017).

Assay [1] concerns HCV replicon genotype 1a. The experiment in a line: microbe, parasite or virus in culture. The conditions noted are these: Hepatitis C virus; HCV genotype 1a replicon cells; 96 hours incubation; replicon-encoded NS3/4A protein by ELISA; percentage of DMSO control. The class given is cell-based. On the technique in general: In antiviral work, replicon cells carry a viral genome segment that copies itself.

Assay [2] deals with HCV replicon genotype 1b. The experiment in a line: microbe, parasite or virus in culture. The class given is cell-based. The note with it: Hepatitis C virus; HCV genotype 1b replicon cells; 96 hours incubation; replicon-encoded NS3/4A protein by ELISA; percentage of DMSO control.

Molecules are shown by their SMILES. pIC50: −log10 of the molar value. A value given as a limit tells only on which side of the number the result lay.

For `CNC(=O)c1c(-c2ccc(F)cc2)oc2cc(N(C)S(C)(=O)=O)c(-c3ccc4ncn(-c5ccc(F)cc5)c4c3)cc12` [Compound 15], the results for the pIC50 in assay [1] and in assay [2] were 6.47 and 7.69, respectively.

In the case of `CNC(=O)c1c(-c2ccc(F)cc2)oc2cc(N(C)S(C)(=O)=O)c(-c3ccc4c(c3)ncn4-c3ccccc3)cc12` [Compound 22], the pIC50 (in general, −log10 of the IC50, conventionally taken in molar units) in assay [1] was 7.60; in assay [2], 8.54.

`CNC(=O)c1c(-c2ccc(F)cc2)oc2cc(N(C)S(C)(=O)=O)c(-c3ccc4c(c3)ncn4-c3cccnc3)cc12` [Compound 23] had a pIC50 in assay [1] of 7.62.

As to `CNC(=O)c1c(-c2ccc(F)cc2)oc2cc(N(C)S(C)(=O)=O)c(-c3ccc4ncn(CCO)c4c3)cc12` [Compound 28], the pIC50 was 6.12 in assay [1] and 7.12 in assay [2].

With `CNC(=O)c1c(-c2ccc(F)cc2)oc2cc(N(C)S(C)(=O)=O)c(-c3ncc4ncn(-c5ccc(OC(F)(F)F)cc5)c4n3)cc12` [Compound 29, 2-(4-fluorophenyl)-N-methyl-6-(N-methylmethylsulfonamido)-5-(9-(4-(trifluoromethoxy)phenyl)-9H-purin-2-yl)benzofuran-3-carboxamide], in assay [1], the pIC50 is below 6.00.

Turning to `CNC(=O)c1c(-c2ccc(F)cc2)oc2cc(N(C)S(C)(=O)=O)c(-c3ncc4ncn(-c5ccc(C#N)cc5)c4n3)cc12` [Compound 32], in assay [1], the pIC50 is below 6.00.

In turn, `CNC(=O)c1c(-c2ccc(F)cc2)oc2cc(N(C)S(C)(=O)=O)c(-c3ccc4[nH]c(-c5ccccc5)cc4c3)cc12` [Compound 39] showed a pIC50 in assay [1] below 6.00.

In the case of `CNC(=O)c1c(-c2ccc(F)cc2)oc2cc(N(C)S(C)(=O)=O)c(-c3ccc4cnn(-c5ccc(Cl)cc5)c4c3)cc12` [Compound 52], the values for the pIC50 in assay [1] and in assay [2] were 8.22 and 8.16, respectively.
